What was measured:
Test in all cases: relative viability (nuclei count vs DMSO), 5 days (fraction); higher = more cells survive
Pemetrexed + Bortezomib = compound: Nc1nc2[nH]cc(CCc3ccc(C(=O)N[C@@H](CCC(=O)O)C(=O)O)cc3)c2c(=O)[nH]1 [Pemetrexed] + CC(C)C[C@H](NC(=O)[C@H](Cc1ccccc1)NC(=O)c1cnccn1)B(O)O [Bortezomib] (partner 0.002 µM)
Outline: (§1)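 Values are medians from duplicate plates. Each reflects relative viability, defined as the nuclei count of treated wells over that of vehicle wells. Lung cancer cell lines in 1536-well plates were pin-tool dosed one day after seeding with one drug alone or with a fixed anchor-drug dose plus five library-drug doses (not always all listed) in √10 steps, then fixed, stained and imaged at 4× after 5 days.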

Idelalisib + Bortezomib = compound: CC[C@H](Nc1ncnc2[nH]cnc12)c1nc2cccc(F)c2c(=O)n1-c1ccccc1 [Idelalisib] + CC(C)C[C@H](NC(=O)[C@H](Cc1ccccc1)NC(=O)c1cnccn1)B(O)O [Bortezomib] (partner 0.002 µM)
Outline: as §1

Pemetrexed + Crizotinib = compound: Nc1nc2[nH]cc(CCc3ccc(C(=O)N[C@@H](CCC(=O)O)C(=O)O)cc3)c2c(=O)[nH]1 [Pemetrexed] + C[C@@H](Oc1cc(-c2cnn(C3CCNCC3)c2)cnc1N)c1c(Cl)ccc(F)c1Cl [Crizotinib] (partner 1 µM)
Outline: as §1

Idelalisib + Foretinib = compound: CC[C@H](Nc1ncnc2[nH]cnc12)c1nc2cccc(F)c2c(=O)n1-c1ccccc1 [Idelalisib] + COc1cc2c(Oc3ccc(NC(=O)C4(C(=O)Nc5ccc(F)cc5)CC4)cc3F)ccnc2cc1OCCCN1CCOCC1 [Foretinib] (partner 0.25 µM)
Outline: as §1

Cell Line | relative viability (Pemetrexed + Bortezomib; first compound 0.002 µM) | relative viability (Pemetrexed + Bortezomib; first compound 0.006325 µM) | relative viability (Pemetrexed + Bortezomib; first compound 0.02 µM) | relative viability (Pemetrexed + Bortezomib; first compound 0.06325 µM) | relative viability (Pemetrexed + Bortezomib; first compound 0.2 µM) | relative viability (Idelalisib + Bortezomib; first compound 0.04 µM) | relative viability (Idelalisib + Bortezomib; first compound 0.1265 µM) | relative viability (Idelalisib + Bortezomib; first compound 0.4 µM) | relative viability (Idelalisib + Bortezomib; first compound 1.265 µM) | relative viability (Idelalisib + Bortezomib; first compound 4 µM) | relative viability (Pemetrexed + Crizotinib; first compound 0.002 µM) | relative viability (Pemetrexed + Crizotinib; first compound 0.006325 µM) | relative viability (Pemetrexed + Crizotinib; first compound 0.02 µM) | relative viability (Pemetrexed + Crizotinib; first compound 0.06325 µM) | relative viability (Pemetrexed + Crizotinib; first compound 0.2 µM) | relative viability (Idelalisib + Foretinib; first compound 0.04 µM) | relative viability (Idelalisib + Foretinib; first compound 0.1265 µM) | relative viability (Idelalisib + Foretinib; first compound 0.4 µM) | relative viability (Idelalisib + Foretinib; first compound 1.265 µM) | relative viability (Idelalisib + Foretinib; first compound 4 µM)
HCC-15 | 0.916 | 0.995 | 1.12 | 1.02 | 0.562 | 0.998 | 1.11 | 0.899 | 1.1 | 1.02 | 0.747 | 0.824 | 0.883 | 0.775 | 0.473 | 1.09 | 1.02 | 0.975 | 1.18 | 0.94
ABC-1 | 0.244 | 0.297 | 0.322 | 0.214 | 0.292 | 0.327 | 0.243 | 0.309 | 0.326 | 0.288 | 0.997 | 1.2 | 1.18 | 1 | 1.05 | 1.09 | 1.06 | 0.853 | 0.963 | 0.977
EPLC-272H | 0.682 | 0.888 | 1.16 | 0.848 | 0.926 | 0.904 | 0.858 | 1.05 | 0.935 | 0.851 | 0.781 | 0.913 | 1.07 | 0.981 | 0.853 | 0.793 | 0.667 | 0.662 | 0.635 | 0.517
NCI-H2009 | 0.911 | 0.954 | 1.15 | 0.974 | 1 | 1.02 | 1.07 | 0.995 | 1.14 | 0.991 | 1.01 | 1.04 | 1.01 | 1.06 | 1.04 | 1.17 | 1.21 | 1.16 | 1.23 | 1.14
NCI-H661 | 0.945 | 0.88 | 0.891 | 0.727 | 0.648 | 0.679 | 0.658 | 0.496 | 0.661 | 0.628 | 1.06 | 1.03 | 0.949 |  | 0.944 | 1.12 | 1.06 | 1.02 | 1.01 | 1.02
NCI-H520 | 0.29 | 0.64 | 0.542 | 0.526 | 0.395 | 0.464 | 0.552 | 0.367 | 0.634 | 0.278 | 0.776 | 0.679 | 1.08 | 0.969 | 0.79 | 0.738 | 0.741 | 0.587 | 0.7 | 0.553
NCI-H1563 | 0.784 | 0.869 | 0.978 | 0.855 | 0.932 | 0.932 | 0.858 | 0.696 | 0.864 | 0.681 | 0.946 | 0.837 | 0.878 | 0.911 | 0.938 | 0.969 | 0.941 | 0.873 | 0.877 | 0.788
NCI-H2405 | 0.983 | 0.974 | 1.05 | 0.986 | 0.96 | 1.05 | 0.98 | 0.937 | 0.983 | 0.962 | 0.868 | 0.785 | 0.869 | 0.824 | 0.825 | 1.11 | 1.06 | 0.952 | 1.01 | 0.956
